# Experimental data taken from patent publication US12655150B2 (Cedilla Therapeutics, Inc., priority 2021, dated 2026).
# Tested on: NCI-H226
# Assay: 72H TEAD Proliferation Assay (Cell Titer Glo 2.0)
# Format: cell-based
# Conditions: Homo sapiens, NCI-H226, 72 h, CTG 2.0, cell line not given (NCI-H226 responsive, NCI-H28 non-responsive)
# Procedure, shortened: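 Growth read-out is ATP luminescence (CellTiter-Glo 2.0) after 72 h compound exposure, corrected for no-CTG background and day-0 values, with GI50 from nonlinear regression. Sensitive line NCI-H226 (NF2-deficient); non-responsive NCI-H28 (NF2 wild type) distinguishes TEAD-driven from nonspecific growth inhibition.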
row,SMILES,GI50 [nM]
1,"O=C(O)c1ccc2c(c1)nc(-c1ccc(C3CCCCC3)cc1)c1nccn12 [I-62, 4-(4-Cyclohexylphenyl)imidazo[1,2-a]quinoxaline-7-carboxylic acid]",> 10000
2,"O=C(O)c1ccc2c(c1)nc(Oc1cccc(C(F)(F)F)c1)c1cccn12 [I-24, 4-(3-(Trifluoromethyl)phenoxy) pyrrolo[1,2-a] quinoxaline-7-carboxylic acid]",1000 to 5000
3,"Cc1cc(-c2ccc(OC(F)(F)F)cc2)nc2cc(C(=O)N[C@H](C)CO)ccc12 [I-255, (R)—N-(1-hydroxypropan-2-yl)-4-methyl-2-(4-(trifluoromethoxy)phenyl)quinoline-7-carboxamide]",1000 to 5000
4,"C=C(F)C(=O)NCc1nc(-c2ccc(C(F)(F)F)cc2)c2cccnc2n1 [I-307, 2-fluoro-N-((4-(4-(trifluoromethyl)phenyl)pyrido[2,3-d]pyrimidin-2-yl)methyl)acrylamide]",≤ 1000
5,"O=C(/C=C/CF)NCc1cn2c(F)cnc2c(-c2ccc(C(F)(F)F)cc2)n1 [I-249, (E)-4-Fluoro-N-((3-fluoro-8-(4-(trifluoromethyl)phenyl)imidazo[1,2-a]pyrazin-6-yl)methyl)but-2-enamide]",≤ 1000
6,"O=C(O)c1ccc2c(c1)nc(-c1ccc(F)cc1)c1cccn12 [I-43, 4-(4-Fluorophenyl)pyrrolo[1,2-a]quinoxaline-7-carboxylic acid]",> 10000
7,"CC1(C)C2CN(c3nc4cc(C(=O)O)ccc4n4cccc34)CC21 (stereo not shown) [I-31, 4-(6,6-Dimethyl-3-azabicyclo[3.1.0]hexan-3-yl)pyrrolo[1,2-a]quinoxaline-7-carboxylic acid]",> 10000
8,"C=CC(=O)Nc1ccc2c(c1)nc(-c1ccc(C(F)(F)F)cc1)c1cccn12 [I-120, N-(4-(4-(trifluoromethyl)phenyl)pyrrolo[1,2-a]quinoxalin-7-yl)acrylamide]",≤ 1000
9,"CS(=O)(=O)NCc1cn2cccc2c(-c2ccc(C(F)(F)F)cc2)n1 [I-320, N-((1-(4-(trifluoromethyl)phenyl)pyrrolo[1,2-a]pyrazin-3-yl)methyl)methanesulfonamide]",1000 to 5000
10,"COc1cc(-c2ccc(C(F)(F)F)cc2)nc2cc(C(=O)N[C@@H](CO)c3ccc(O)cc3)ccc12 [I-363, (R)—N-(2-hydroxy-1-(4-hydroxyphenyl)ethyl)-4-methoxy-2-(4-(trifluoromethyl)phenyl)quinoline-7 carboxamide]",≤ 1000
11,"CC(C)(C)c1ccc(-c2nc3cc(C(=O)O)ncc3n3cccc23)cc1 [I-282, 6-(4-(tert-butyl)phenyl)pyrido[4,3-e]pyrrolo[1,2-a]pyrazine-3-carboxylic acid]",1000 to 5000
12,"COc1cc(-c2ccc(C(F)(F)F)cc2)nc2cc(C(=O)N[C@@H](CO)c3ccncc3)ccc12 [I-366, (R)—N-(2-hydroxy-1-(pyridin-4-yl)ethyl)-4-methoxy-2-(4-(trifluoromethyl)phenyl)quinoline-7-carboxamide]",≤ 1000
13,"C=CC(=O)NCc1cn2ccnc2c(-c2ccc(C(F)(F)F)cc2)n1 [I-109, N-((8-(4-(trifluoromethyl)phenyl)imidazo[1,2-a]pyrazin-6-yl)methyl)acrylamide]",≤ 1000
14,"C=CC(=O)NCc1cn2ccnc2c(-c2ccc(SC(F)(F)F)cc2)n1 [I-448, N-((8-(4-((trifluoromethyl)thio)phenyl)imidazo[1,2-a]pyrazin-6-yl)methyl)acrylamide]",≤ 1000
15,"O=C(O)c1ccc2ccc(-c3ccc(C(F)(F)F)cc3)nc2c1 [I-403, 2-(4-(trifluoromethyl)phenyl)quinoline-7-carboxylic acid]",1000 to 5000
16,"COc1cc(-c2ccc(C(F)(F)F)cc2)nc2cc(-c3nnc(C)[nH]3)ccc12 [I-413, 4-methoxy-7-(5-methyl-4H-1,2,4-triazol-3-yl)-2-(4-(trifluoromethyl)phenyl)quinolone]",5000 to 10000

row,SMILES,GI50 [nM]
1,"C=CC(=O)Nc1nc(-c2ccc(C(C)(C)C)cc2)nc2cc(C(=O)O)ccc12 [I-104, 4-Acrylamido-2-(4-(tert-butyl)phenyl)quinazoline-7-carboxylic acid]",> 10000
2,"C=CC(=O)NCc1cn2cccc2c(-c2ccc(C(F)(F)F)cc2)n1 [I-319, N-((1-(4-(trifluoromethyl)phenyl)pyrrolo[1,2-a]pyrazin-3-yl)methyl)acrylamide]",≤ 1000
3,"C=CC(=O)Nc1cccc2nc(-c3ccc(C(C)(C)C)cc3)c(C)cc12 [I-99, N-(2-(4-(tert-butyl)phenyl)-3-methylquinolin-5-yl)acrylamide]",> 10000
4,"CC[C@H](CO)NC(=O)c1ccc2c(C3CC3)cc(-c3ccc(C(F)(F)F)cc3)nc2c1 [I-399, (R)-4-cyclopropyl-N-(1-hydroxybutan-2-yl)-2-(4-(trifluoromethyl)phenyl)quinoline-7-carboxamide]",≤ 1000
5,"CC1(C)CCN(c2nc3cc(C(=O)O)ccc3n3cccc23)CC1 [I-3, 4-(4,4-Dimethylpiperidin-1-yl)pyrrolo[1,2-a]quinoxaline-7-carboxylic acid]",1000 to 5000
6,"Cc1ccc(-c2nc3cc(C(=O)O)ccc3n3cccc23)cc1 [I-45, 4-(p-Tolyl)pyrrolo[1,2-a]quinoxaline-7-carboxylic acid]",> 10000
7,"O=C(O)c1ccc2c(c1)nc(-c1ccc(SC(F)(F)F)cc1)c1cccn12 [I-194, 4-(4-((trifluoromethyl)thio)phenyl)pyrrolo[1,2-a]quinoxaline-7-carboxylic acid]",≤ 1000
8,"COc1nc(-c2ccc(C(F)(F)F)cc2)nc2cc(C(=O)N[C@H](C)CO)ccc12 [I-434, (R)—N-(1-hydroxypropan-2-yl)-4-methoxy-2-(4-(trifluoromethyl)phenyl)quinazoline-7-carboxamide]",≤ 1000
9,"C=CC(=O)Nc1ccc2c(c1)nc(-c1ccc(C(F)(F)F)cc1F)c1nccn12 [I-133, N-(4-(2-Fluoro-4-(trifluoromethyl)phenyl)imidazo[1,2-a]quinoxalin-7-yl)acrylamide]",≤ 1000
10,"COC/C=C/C(=O)NCc1cn2ccnc2c(-c2ccc(C(F)(F)F)cc2)n1 [I-219, (E)-4-methoxy-N-((8-(4-(trifluoromethyl)phenyl)imidazo[1,2-a]pyrazin-6-yl)methyl)but-2-enamide]",1000 to 5000
11,"O=C(O)c1ccc2c(c1)nc(-c1ccc(OC(F)F)cc1)c1cccn12 [I-193, 4-(4-(difluoromethoxy)phenyl)pyrrolo[1,2-a]quinoxaline-7-carboxylic acid]",1000 to 5000
12,"COc1cc(-c2ccc(C(F)(F)F)cc2)nc2cc(C(=O)N[C@@H](C)c3cccc(N)c3)ccc12 [I-350, (S)—N-(1-(3-aminophenyl)ethyl)-4-methoxy-2-(4-(trifluoromethyl)phenyl)quinoline-7-carboxamide]",≤ 1000
13,"CC(C)(C)c1ccc(-c2nc3cc(C(=O)O)ccc3n3cc(F)cc23)cc1 [I-108, 4-(4-(tert-Butyl)phenyl)-2-fluoropyrrolo[1,2-a]quinoxaline-7-carboxylic acid]",1000 to 5000
14,"C=CC(=O)NCc1nc(-c2ccc(C(F)(F)F)cc2)c2cccnc2n1 [I-304, N-((4-(4-(trifluoromethyl)phenyl)pyrido[2,3-d]pyrimidin-2-yl)methyl)acrylamide]",≤ 1000
15,"COc1cc(-c2ccc(C(F)(F)F)cc2)nc2cc(S(C)(=O)=O)ccc12 [I-415, 4-methoxy-7-(methylsulfonyl)-2-(4-(trifluoromethyl)phenyl)quinoline]",≤ 1000
